{"source": "patent US11518788B2", "about": "“Methods and compositions for treating and preventing viral infection” (priority 2020, dated 2022)", "system": "SARS-CoV-2 variant D614G", "format": "cell-based", "data": [{"substance": "ACE2-Fc", "values": [{"measurement": "inhibition of infection by SARS-CoV-2 variant D614G", "result": "inhibited infection"}]}]}
